Measurements published in patent US9518300B2, “Composition and method for treating a hematological malignancy” (Dana-Farber Cancer Institute, Inc., priority 2014, dated 2016).

Columns and labels:
BCL9 [1] = assay: BCL9 and Wnt target gene expression after ectopic miR-30 expression (Q-RT-PCR, immunoblot, IF); assay type: cell-based, human; settings: H929 cells
Description: We next investigated whether BCL9 mRNA expression is regulated by miR-30s in MM cells using both gain- and loss-of function studies. For gain-of-function studies we used H929 cells that express the lowest levels of miR-30s among the MM cell lines examined (FIG. 1C).
We first induced ectopic expression of individual V-miR-30s family members in H929 cells using lentiviral infection. After flow sorting of GFP positive cells, levels of miR-30s were verified by Q-RT-PCR (FIG. 3A) and then used in subsequent experiments.

BCL9 [2] = assay: Transient transfection of mature miR-30c, BCL9 immunoblot in RPMI8226 cells; assay type: cell-based, human; settings: increasing amounts of mature miR-30c, 72 hours, control cel-miR-67
Description: To exclude the possibility that the observed changes in BCL9 expression may be due to non specific and/or secondary effects of stable transfection of V-miR-30c, we also performed transient transfection with increasing amounts of mature miR-30c into RPMI8226 cells, using cel-miR-67 as a control (FIG. 3F).
To confirm transfection efficiency, cells were collected 72 hours after transfection, and miR-30c expression levels were checked by Q-RT-PCR (FIG. 3F, top). We found an inverse association between downregulation of BCL9 protein expression and increasing amounts of transfected mature miR-30c (FIG. 3F, bottom).

BCL9 [3] = assay: Transfection of patient CD138+ primary cells, IF of BCL9, CD44, Axin2; assay type: cell-based, human; settings: CD138+ primary cells (n=3), 40 pmol, control cel-miR-67
Description: (§1) In order to verify miR-30's potential for therapy in MM patients, CD138+ primary cells (n=3) were transfected with 40 pmol of mature miR-30c or same amount of cel-miR-67 as control.

CD138+ primary cells = assay: Proliferation of patient CD138+ primary MM cells, [3H] thymidine uptake; assay type: cell-based, human; settings: 40 pmol
Description: Cell proliferation was assessed by [^3H] thymidine uptake as described (1). For apoptosis, cells were stained with Annexin-V-Fluos (Boehringer, Mannheim, Germany). Stained cells were analyzed by flow cytometry, and data were analyzed by use of CellQuest (Becton-Dickinson, Sunnyvale, Calif.). Cell invasion and migration assays were done as described (2).
as §1

H929 cells = assay: Dexamethasone sensitivity of H929 cells co-cultured with HS-5 BMSCs (CAM-DR); assay type: cell-based, human; settings: H929 with HS-5 cells 48 h, 200 nM dexamethasone, control cel-miR-67
Description: Reasoning that CD44 is a downstream target of Wnt/β-catenin/BCL9 transcriptional complex, and that miR-30c downregulates expression of CD44 in MM cells (FIG. 3B), and that CD44 is a functional component of cell adhesion-mediated drug resistance (CAM-DR), we investigated the possible role of miR-30s in MM drug resistance in the context of a bone marrow (BM) microenvironment. After ectopic overexpression of miR-30c or miR-30a/b/c/d/e cocktail (miR-30mix) or a negative control (cel-miR-67) in H929 cells, we co-cultured these cells alone or in the presence of HS-5 cells for 48 h and treated them with 200 nM dexamethasone.

[4] = μCT of bone in mice not transplanted with myeloma cells; assay type: in vivo; settings: SCID mice not transplanted, 10 days of treatment, versus vehicle
Description: Micro-computed topographic (μCT) imaging was performed on the L4-L6 vertebrae of the intact spine of a subset of mice using a high-resolution desktop imaging system (μCT40, Scanco Medical AG, Bruttisellen, Switzerland). Scans were acquired using a 12 μm^3 isotropic voxel size, 70 kVp peak x-ray tube potential, and 200 ms integration time. Cortical and trabecular bone micro architecture was quantified in the 5th lumbar vertebral body in a region beginning 120 μm below the cranial growth plate and ending 120 μm above the caudal growth plate. To assess cortical lesions, we determined the cortical bone volume (Ct.BV) and total volume (Ct.TV) of the ventral face of the vertebral body. Cortical void fraction (%) was calculated as 1−(Ct.BV/Ct.TV)*100 and represents the percent of the ventral face that was void of bone. Trabecular bone volume fraction (Tb.BV/Tb.TV, %) was measured in the region of interest. […]
Micro-computed topographic (μCT) imaging was performed on the L4-L6 vertebrae of the intact spine of a subset of mice using a high-resolution desktop imaging system ([…], Scanco Medical AG, Bruttisellen, Switzerland). […] Cortical and trabecular bone micro architecture was quantified in the 5th lumbar vertebral body in a region beginning 120 μm below the cranial growth plate and ending 120 μm above the caudal growth plate. […]

miR-30c: microRNA, UGUAAACAUCCUACACUCUCAGC (SEQ ID NO: 3 / 29) (listed as RNA, chemistry not given here; listed as Homo sapiens)
expression of BCL9 mRNA (BCL9 [1]): significant reduction | expression of Wnt pathway downstream targets CD44 and Axin2 (BCL9 [1]): reduced expression | BCL9 protein expression (BCL9 [2]): downregulation | expression of BCL9, CD44 and Axin2 (BCL9 [3]): downregulated | MM cell proliferation (CD138+ primary cells): dramatically inhibited | sensitivity to dexamethasone treatment (H929 cells): resensitize | bone osteolytic lesions [4]: No apparent development
